Data published in ChEMBL document CHEMBL1649287, “Postantibiotic effect of ceftaroline against gram-positive organisms” (2009).
Converted amounts (≈) assume the structure as drawn.

Legend:
Type in all cases: functional
Staphylococcus aureus [1] = assay: Antimicrobial activity against methicillin-resistant, vancomycin-susceptible Staphylococcus aureus vs1 assessed as time required to induce sub-MIC effect at 0.2 times MIC after 1 hr by plate counting method; details: vs1, 1 h
Enterococcus faecalis [2] = assay: Antimicrobial activity against vancomycin-sensitive Enterococcus faecalis 10 assessed as time required to induce sub-MIC effect at 0.2 times MIC after 1 hr by plate counting method; details: Enterococcus faecalis, 10, 1 h
Enterococcus faecalis [3] = assay: Antimicrobial activity against vancomycin-resistant Enterococcus faecalis 609 assessed as time required to induce sub-MIC effect at 0.2 times MIC after 1 hr by plate counting method; details: Enterococcus faecalis, 609, 1 h
Streptococcus pneumoniae [4] = assay: Antimicrobial activity against Penicillin-susceptible Streptococcus pneumoniae s502 assessed as time required to induce post antibiotic sub-MIC effect at 0.2 times MIC after 1 hr by plate counting method; details: s502, 1 h
Streptococcus pneumoniae [5] = assay: Antimicrobial activity against Penicillin-intermediate Streptococcus pneumoniae s1234 assessed as time required to induce post antibiotic sub-MIC effect at 0.2 times MIC after 1 hr by plate counting method; details: s1234, 1 h
Staphylococcus aureus [6] = assay: Antimicrobial activity against methicillin-susceptible, vancomycin-susceptible Staphylococcus aureus ATCC 29213 assessed as time required to induce post antibiotic sub-MIC effect at 0.2 times MIC after 1 hr by plate counting method; details: ATCC 29213, 1 h
Staphylococcus aureus [7] = assay: Antimicrobial activity against methicillin-susceptible, vancomycin-susceptible Staphylococcus aureus sox1 assessed as time required to induce post antibiotic sub-MIC effect at 0.2 times MIC after 1 hr by plate counting method; details: sox1, 1 h
Staphylococcus aureus [8] = assay: Antimicrobial activity against methicillin-resistant, vancomycin-resistant Staphylococcus aureus 770 assessed as time required to induce post antibiotic sub-MIC effect at 0.2 times MIC after 1 hr by plate counting method; details: Staphylococcus aureus, 770, 1 h
Enterococcus faecalis [9] = assay: Antimicrobial activity against vancomycin-sensitive Enterococcus faecalis 10 assessed as time required to induce post antibiotic sub-MIC effect at 0.2 times MIC after 1 hr by plate counting method; details: Enterococcus faecalis, 10, 1 h
Enterococcus faecalis [10] = assay: Antimicrobial activity against vancomycin-sensitive Enterococcus faecalis 20 assessed as time required to induce post antibiotic sub-MIC effect at 0.2 times MIC after 1 hr by plate counting method; details: Enterococcus faecalis, 20, 1 h
Enterococcus faecalis [11] = assay: Antimicrobial activity against vancomycin-sensitive Enterococcus faecalis ATCC 29212 assessed as time required to induce post antibiotic sub-MIC effect at 0.2 times MIC after 1 hr by plate counting method; details: ATCC 29212, 1 h
Streptococcus pneumoniae [12] = assay: Antimicrobial activity against Penicillin-, erythromycin-resistant Streptococcus pneumoniae 37 assessed as time required to induce sub-MIC effect at 0.3 times MIC after 1 hr by plate counting method; details: Streptococcus pneumoniae, 37, 1 h
Staphylococcus aureus [13] = assay: Antimicrobial activity against methicillin-susceptible, vancomycin-susceptible Staphylococcus aureus sox1 assessed as time required to induce sub-MIC effect at 0.3 times MIC after 1 hr by plate counting method; details: sox1, 1 h
Staphylococcus aureus [14] = assay: Antimicrobial activity against methicillin-resistant, vancomycin-resistant Staphylococcus aureus 770 assessed as time required to induce sub-MIC effect at 0.3 times MIC after 1 hr by plate counting method; details: Staphylococcus aureus, 770, 1 h
Streptococcus pneumoniae [15] = assay: Antimicrobial activity against Penicillin-susceptible Streptococcus pneumoniae s502 assessed as time required to induce post antibiotic sub-MIC effect at 0.3 times MIC after 1 hr by plate counting method; details: s502, 1 h
Streptococcus pneumoniae [16] = assay: Antimicrobial activity against Penicillin-intermediate Streptococcus pneumoniae s1234 assessed as time required to induce post antibiotic sub-MIC effect at 0.3 times MIC after 1 hr by plate counting method; details: s1234, 1 h
Enterococcus faecalis [17] = assay: Antimicrobial activity against vancomycin-sensitive Enterococcus faecalis 10 assessed as time required to induce post antibiotic sub-MIC effect at 0.3 times MIC after 1 hr by plate counting method; details: Enterococcus faecalis, 10, 1 h
Enterococcus faecalis [18] = assay: Antimicrobial activity against vancomycin-sensitive Enterococcus faecalis 20 assessed as time required to induce post antibiotic sub-MIC effect at 0.3 times MIC after 1 hr by plate counting method; details: Enterococcus faecalis, 20, 1 h
Enterococcus faecalis [19] = assay: Antimicrobial activity against vancomycin-resistant Enterococcus faecalis 609 assessed as time required to induce post antibiotic sub-MIC effect at 0.3 times MIC after 1 hr by plate counting method; details: Enterococcus faecalis, 609, 1 h
Streptococcus pneumoniae [20] = assay: Antimicrobial activity against Penicillin-intermediate Streptococcus pneumoniae s1234 assessed as time required to induce sub-MIC effect at 0.4 times MIC after 1 hr by plate counting method; details: s1234, 1 h
Staphylococcus aureus [21] = assay: Antimicrobial activity against methicillin-resistant, vancomycin-susceptible Staphylococcus aureus vs1 assessed as time required to induce sub-MIC effect at 0.4 times MIC after 1 hr by plate counting method; details: vs1, 1 h
Staphylococcus aureus [22] = assay: Antimicrobial activity against methicillin-resistant, vancomycin-resistant Staphylococcus aureus 770 assessed as time required to induce sub-MIC effect at 0.4 times MIC after 1 hr by plate counting method; details: Staphylococcus aureus, 770, 1 h
Streptococcus pneumoniae [23] = assay: Antimicrobial activity against Penicillin-, erythromycin-resistant Streptococcus pneumoniae 37 assessed as time required to induce post antibiotic sub-MIC effect at 0.4 times MIC after 1 hr by plate counting method; details: Streptococcus pneumoniae, 37, 1 h
Enterococcus faecalis [24] = assay: Antimicrobial activity against vancomycin-sensitive Enterococcus faecalis 10 assessed as time required to induce post antibiotic sub-MIC effect at 0.4 times MIC after 1 hr by plate counting method; details: Enterococcus faecalis, 10, 1 h
Enterococcus faecalis [25] = assay: Antimicrobial activity against vancomycin-sensitive Enterococcus faecalis 20 assessed as time required to induce post antibiotic sub-MIC effect at 0.4 times MIC after 1 hr by plate counting method; details: Enterococcus faecalis, 20, 1 h
Streptococcus pneumoniae [26] = assay: Antimicrobial activity against Penicillin-susceptible Streptococcus pneumoniae s502 by microdilution method
Streptococcus pneumoniae [27] = assay: Antimicrobial activity against Penicillin-intermediate Streptococcus pneumoniae s1234 by microdilution method
Enterococcus faecalis [28] = assay: Antimicrobial activity against vancomycin-sensitive Enterococcus faecalis 10 by microdilution method
Enterococcus faecalis [29] = assay: Antimicrobial activity against vancomycin-sensitive Enterococcus faecalis 20 by microdilution method
Enterococcus faecalis [30] = assay: Antimicrobial activity against vancomycin-sensitive Enterococcus faecalis ATCC 29212 by microdilution method
Enterococcus faecalis [31] = assay: Antimicrobial activity against vancomycin-resistant Enterococcus faecalis 266 by microdilution method
Streptococcus pneumoniae [32] = assay: Antimicrobial activity against Penicillin-susceptible Streptococcus pneumoniae s502 assessed as post antibiotic effect at 10 times MIC after 1 hr by plate counting method; details: s502, 1 h
Streptococcus pneumoniae [33] = assay: Antimicrobial activity against Penicillin-intermediate Streptococcus pneumoniae s1234 assessed as post antibiotic effect at 10 times MIC after 1 hr by plate counting method; details: s1234, 1 h
Staphylococcus aureus [34] = assay: Antimicrobial activity against methicillin-resistant, vancomycin-susceptible Staphylococcus aureus vs1 assessed as post antibiotic effect at 10 times MIC after 1 hr by plate counting method; details: vs1, 1 h
Staphylococcus aureus [35] = assay: Antimicrobial activity against methicillin-resistant, vancomycin-resistant Staphylococcus aureus 770 assessed as post antibiotic effect at 10 times MIC after 1 hr by plate counting method; details: Staphylococcus aureus, 770, 1 h
Enterococcus faecalis [36] = assay: Antimicrobial activity against vancomycin-sensitive Enterococcus faecalis 20 assessed as post antibiotic effect at 10 times MIC after 1 hr by plate counting method; details: Enterococcus faecalis, 20, 1 h
Staphylococcus aureus [37] = assay: Antimicrobial activity against methicillin-susceptible, vancomycin-susceptible Staphylococcus aureus ATCC 29213 assessed as time required to induce sub-MIC effect at 0.2 times MIC after 1 hr by plate counting method; details: ATCC 29213, 1 h

SMILES: CCO/N=C(\C(=O)N[C@@H]1C(=O)N2C(C(=O)[O-])=C(Sc3nc(-c4cc[n+](C)cc4)cs3)CS[C@H]12)c1nsc(NP(=O)(O)O)n1 [CEFTAROLINE FOSAMIL]
- time (Staphylococcus aureus [1]): 0.4 h
- PAE (Enterococcus faecalis [2]): 0.8 h
- time (Enterococcus faecalis [3]): 1.4 h
- PAE (Streptococcus pneumoniae [4]): 2.7 h
- PAE (Streptococcus pneumoniae [5]): 1.4 h
- PAE (Staphylococcus aureus [6]): 2.5 h
- time (Staphylococcus aureus [7]): 2.2 h
- time (Staphylococcus aureus [8]): 1.5 h
- PAE (Enterococcus faecalis [9]): 3.2 h
- PAE (Enterococcus faecalis [10]): 4.1 h
- PAE (Enterococcus faecalis [11]): 7.6 h
- time (Streptococcus pneumoniae [12]): 0.5 h
- PAE (Staphylococcus aureus [13]): 0.9 h
- time (Staphylococcus aureus [14]): 0.5 h
- PAE (Streptococcus pneumoniae [15]): 3.5 h
- PAE (Streptococcus pneumoniae [16]): 1.8 h
- PAE (Enterococcus faecalis [17]): 6.6 h
- PAE (Enterococcus faecalis [18]): 8.6 h
- time (Enterococcus faecalis [19]): 3.3 h
- PAE (Streptococcus pneumoniae [20]): 0.6 h
- time (Staphylococcus aureus [21]): 1.2 h
- time (Staphylococcus aureus [22]): 0.6 h
- time (Streptococcus pneumoniae [23]): 3.7 h
- PAE (Enterococcus faecalis [24]): 8.5 h
- PAE (Enterococcus faecalis [25]): 10.5 h
- MIC (Streptococcus pneumoniae [26]): 0.008 µg/mL (≈ 0.0117 µM)
- MIC (Streptococcus pneumoniae [27]): 0.12 µg/mL (≈ 0.175 µM)
- MIC (Enterococcus faecalis [28]): 0.5 µg/mL (≈ 0.73 µM)
- MIC (Enterococcus faecalis [29]): 0.5 µg/mL (≈ 0.73 µM)
- MIC (Enterococcus faecalis [30]): 1 µg/mL (≈ 1.46 µM)
- MIC (Enterococcus faecalis [31]): 2 µg/mL (≈ 2.92 µM)
- PAE (Streptococcus pneumoniae [32]): 1.8 h
- PAE (Streptococcus pneumoniae [33]): 0.7 h
- PAE (Staphylococcus aureus [34]): 1.2 h
- PAE (Staphylococcus aureus [35]): 1.3 h
- PAE (Enterococcus faecalis [36]): 0.5 h
- PAE (Staphylococcus aureus [37]): 0.2 h
